Data taken from patent publication US10544143B2, “4-azaindole compounds” (BRISTOL-MYERS SQUIBB COMPANY, priority 2017, dated 2020).
Read-outs that look alike come from different tables or passages of the source.

How the values were obtained:
[1] = biological target: human TLR8 (Homo sapiens (Human), UniProt Q9NR97); assay: TLR8 inhibition reporter assay (HEK-Blue SEAP); settings: R848 15.9 μM;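 note: SEAP driven by IFN-β minimal promoter carrying NF-κB and AP-1 sites, compounds dosed 0.05 nM to 50 µM for 22 h, inhibition scaled between agonist-plus-DMSO and reference-inhibitor wells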
Sequence of human TLR8 (Q9NR97 27-1041): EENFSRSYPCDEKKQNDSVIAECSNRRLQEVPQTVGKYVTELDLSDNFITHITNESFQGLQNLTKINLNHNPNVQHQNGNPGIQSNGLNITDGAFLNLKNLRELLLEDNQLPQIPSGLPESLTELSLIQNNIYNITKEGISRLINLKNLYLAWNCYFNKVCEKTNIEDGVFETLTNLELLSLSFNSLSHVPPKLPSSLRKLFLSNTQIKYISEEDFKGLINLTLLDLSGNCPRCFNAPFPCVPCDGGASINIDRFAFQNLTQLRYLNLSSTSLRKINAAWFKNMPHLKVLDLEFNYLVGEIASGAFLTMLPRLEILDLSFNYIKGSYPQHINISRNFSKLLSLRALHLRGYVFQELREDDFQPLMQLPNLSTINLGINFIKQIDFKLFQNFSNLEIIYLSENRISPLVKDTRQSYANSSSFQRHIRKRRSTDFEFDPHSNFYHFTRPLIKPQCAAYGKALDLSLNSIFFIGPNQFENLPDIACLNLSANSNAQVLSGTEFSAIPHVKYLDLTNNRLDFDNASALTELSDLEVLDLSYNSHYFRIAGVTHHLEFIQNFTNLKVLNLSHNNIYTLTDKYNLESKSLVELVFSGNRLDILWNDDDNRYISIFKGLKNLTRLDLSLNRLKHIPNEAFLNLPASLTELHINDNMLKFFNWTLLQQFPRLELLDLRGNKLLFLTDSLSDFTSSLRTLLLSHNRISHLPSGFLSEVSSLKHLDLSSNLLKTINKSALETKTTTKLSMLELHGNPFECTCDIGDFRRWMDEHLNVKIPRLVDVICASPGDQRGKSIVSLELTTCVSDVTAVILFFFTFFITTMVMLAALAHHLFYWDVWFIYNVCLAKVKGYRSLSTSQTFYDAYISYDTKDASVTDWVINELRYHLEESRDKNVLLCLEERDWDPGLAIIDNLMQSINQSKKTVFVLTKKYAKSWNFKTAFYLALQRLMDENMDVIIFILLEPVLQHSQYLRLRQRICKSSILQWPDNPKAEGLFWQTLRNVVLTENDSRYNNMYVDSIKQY

[2] = biological target: human TLR7 (Homo sapiens (Human), UniProt Q9NYK1); assay: TLR7 inhibition reporter assay (HEK-Blue SEAP); assay type: cell-based; settings: HEK-Blue human TLR7 cells, gardiquimod 7.5 μM
Sequence of human TLR7 (Q9NYK1 27-1049): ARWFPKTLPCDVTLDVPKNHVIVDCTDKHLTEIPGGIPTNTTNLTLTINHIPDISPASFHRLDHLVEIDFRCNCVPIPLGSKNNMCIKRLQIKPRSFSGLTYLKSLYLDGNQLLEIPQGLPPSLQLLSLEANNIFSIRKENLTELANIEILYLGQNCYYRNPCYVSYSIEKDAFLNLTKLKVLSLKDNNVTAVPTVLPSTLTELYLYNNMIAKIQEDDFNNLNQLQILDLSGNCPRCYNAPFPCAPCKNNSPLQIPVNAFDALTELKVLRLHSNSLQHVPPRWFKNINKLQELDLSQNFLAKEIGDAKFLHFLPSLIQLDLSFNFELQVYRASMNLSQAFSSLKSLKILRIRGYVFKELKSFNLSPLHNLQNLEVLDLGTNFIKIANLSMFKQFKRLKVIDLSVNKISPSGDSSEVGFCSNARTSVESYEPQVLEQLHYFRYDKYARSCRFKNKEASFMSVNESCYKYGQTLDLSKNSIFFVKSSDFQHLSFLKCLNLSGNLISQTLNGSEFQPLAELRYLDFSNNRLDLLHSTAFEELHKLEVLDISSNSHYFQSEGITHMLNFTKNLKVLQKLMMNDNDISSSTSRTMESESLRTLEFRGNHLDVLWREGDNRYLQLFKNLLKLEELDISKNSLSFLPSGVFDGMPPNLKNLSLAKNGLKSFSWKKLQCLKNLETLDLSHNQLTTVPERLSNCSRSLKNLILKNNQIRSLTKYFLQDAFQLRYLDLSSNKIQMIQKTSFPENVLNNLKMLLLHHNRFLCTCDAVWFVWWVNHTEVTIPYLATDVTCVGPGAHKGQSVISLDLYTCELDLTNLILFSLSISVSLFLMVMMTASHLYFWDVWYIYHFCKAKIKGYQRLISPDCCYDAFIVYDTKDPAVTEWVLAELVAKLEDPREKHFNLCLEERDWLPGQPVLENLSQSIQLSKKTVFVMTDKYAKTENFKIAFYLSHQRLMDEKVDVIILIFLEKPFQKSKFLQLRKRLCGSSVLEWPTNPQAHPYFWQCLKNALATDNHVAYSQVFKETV

[3] = biological target: human TLR9 (Homo sapiens (Human), UniProt Q9NR96); assay: TLR9 inhibition reporter assay (HEK-Blue SEAP); settings: ODN2006 5 nM;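 note: SEAP driven by an IFN-β minimal promoter with NF-κB and AP-1 sites, read after 22 h, compounds dosed 0.05 nM–50 µM, inhibition scaled between agonist plus DMSO and reference-inhibitor wells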
Sequence of human TLR9 (Q9NR96 26-1032): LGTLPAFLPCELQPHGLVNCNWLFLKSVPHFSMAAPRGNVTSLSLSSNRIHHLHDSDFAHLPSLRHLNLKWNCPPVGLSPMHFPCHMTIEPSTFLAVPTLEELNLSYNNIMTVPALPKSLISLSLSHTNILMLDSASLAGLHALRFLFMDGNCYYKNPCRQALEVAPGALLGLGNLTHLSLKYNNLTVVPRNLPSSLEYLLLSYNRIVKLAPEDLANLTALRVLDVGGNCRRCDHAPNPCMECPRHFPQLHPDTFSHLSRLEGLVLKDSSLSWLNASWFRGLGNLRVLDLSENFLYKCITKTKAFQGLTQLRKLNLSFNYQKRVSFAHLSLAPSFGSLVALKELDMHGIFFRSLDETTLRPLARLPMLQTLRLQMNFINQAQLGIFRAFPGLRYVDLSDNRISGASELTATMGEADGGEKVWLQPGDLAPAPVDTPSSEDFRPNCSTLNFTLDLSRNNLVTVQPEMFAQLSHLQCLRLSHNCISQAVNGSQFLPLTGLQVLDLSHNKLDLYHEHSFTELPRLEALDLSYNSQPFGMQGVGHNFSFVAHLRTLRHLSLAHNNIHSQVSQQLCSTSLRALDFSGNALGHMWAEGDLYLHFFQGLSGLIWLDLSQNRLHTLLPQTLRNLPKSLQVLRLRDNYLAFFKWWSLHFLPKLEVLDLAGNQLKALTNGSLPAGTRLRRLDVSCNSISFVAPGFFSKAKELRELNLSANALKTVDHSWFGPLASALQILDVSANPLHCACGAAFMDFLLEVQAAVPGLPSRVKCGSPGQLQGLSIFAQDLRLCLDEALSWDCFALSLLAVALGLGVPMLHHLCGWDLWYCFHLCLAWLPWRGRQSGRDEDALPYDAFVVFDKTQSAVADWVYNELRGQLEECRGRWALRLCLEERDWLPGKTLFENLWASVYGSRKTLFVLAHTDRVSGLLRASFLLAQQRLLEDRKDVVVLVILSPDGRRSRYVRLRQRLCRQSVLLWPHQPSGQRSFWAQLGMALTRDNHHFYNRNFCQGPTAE

[4] = read-out: TLR8 IC50, HEK-Blue human TLR8 cells
[5] = read-out: TLR9 IC50, HEK-Blue human TLR9 cells
[6] = TLR8 IC50, HEK-Blue human TLR8 cells
[7] = TLR9 IC50, HEK-Blue human TLR9 cells

Row | IC50 [1, 4] | IC50 [2] | IC50 [3, 5] | IC50 [1, 6] | IC50 [3, 7] | SMILES
1 |  | 1.8 nM |  | 0.7 nM | 7860 nM | [2H]C([2H])([2H])NCC(=O)N1CCN(c2ccc3[nH]c(-c4cn5ncnc5c(C)c4C)c(C(C)C)c3n2)CC1 [Example 952]
2 | 5.3 nM | 0.92 nM | 12000 nM |  |  | Cc1c(-c2[nH]c3ccc(N4CCN(C(=O)CN(CCO)C(C)(C)C)C[C@H]4C)nc3c2C(C)C)cn2ncnc2c1C [Example 953]
3 | 36 nM | 1.9 nM | 20900 nM |  |  | Cc1c(-c2[nH]c3ccc(N4C[C@H](C)N(C(=O)CN(CCO)C(C)(C)C)C[C@H]4C)nc3c2C(C)C)cn2ncnc2c1C [Example 954]
4 | 2 nM | 0.76 nM | 20400 nM |  |  | Cc1c(-c2[nH]c3ccc(N4CCN(C(=O)CN(CCO)C(C)(C)C)[C@H](C)C4)nc3c2C(C)C)cn2ncnc2c1C [Example 955]
5 | 1.9 nM | 1 nM | 9650 nM |  |  | Cc1c(-c2[nH]c3ccc(N4CCN(C(=O)CN5CC6(CCOC6)C5)CC4)nc3c2C(C)C)cn2ncnc2c1C [Example 956]
6 | 2.9 nM | 0.92 nM | 24400 nM |  |  | Cc1c(-c2[nH]c3ccc(N4CCN(C(=O)CN5CCC6(COC6)C5)CC4)nc3c2C(C)C)cn2ncnc2c1C [Example 957]
7 | 2.3 nM | 0.27 nM | 11200 nM |  |  | Cc1c(-c2[nH]c3ccc(N4C[C@@H](C)N(C(=O)CCN5CC6(CCO6)C5)C[C@@H]4C)nc3c2C(C)C)cn2ncnc2c1C [Example 958]
8 | 0.29 nM | 1.4 nM | 7680 nM |  |  | Cc1c(-c2[nH]c3ccc(N4C[C@@H](C)N(C(=O)CCN5CC6(C5)CS(=O)(=O)C6)C[C@@H]4C)nc3c2C(C)C)cn2ncnc2c1C [Example 959]
9 | 0.32 nM | 0.77 nM | 3170 nM |  |  | Cc1c(-c2[nH]c3ccc(N4C[C@@H](C)N(C(=O)CCN5CC6(CCOC6)C5)C[C@@H]4C)nc3c2C(C)C)cn2ncnc2c1C [Example 960]
10 | 0.8 nM | 0.35 nM | 8340 nM |  |  | Cc1c(-c2[nH]c3ccc(N4C[C@@H](C)N(C(=O)CCN5CCC6(COC6)C5)C[C@@H]4C)nc3c2C(C)C)cn2ncnc2c1C [Example 961]
11 | 17 nM | 3.7 nM | > 50000 nM |  |  | Cc1c(-c2[nH]c3ccc(N4C[C@@H](C)N(C(=O)CCN5CCC(F)(F)C5)C[C@@H]4C)nc3c2C(C)C)cn2ncnc2c1C [Example 962]
12 | 1.9 nM | 0.84 nM | 35300 nM |  |  | Cc1c(-c2[nH]c3ccc(N4C[C@@H](C)N(C(=O)CCN5CCOCC5(C)C)C[C@@H]4C)nc3c2C(C)C)cn2ncnc2c1C [Example 963]
13 |  | 0.53 nM |  | 0.25 nM | 3100 nM | [2H]C([2H])([2H])NCCC(=O)N1C[C@H](C)N(c2ccc3[nH]c(-c4cn5ncnc5c(C)c4C)c(C(C)C)c3n2)C[C@H]1C [Example 964]
14 |  | 0.39 nM |  | 1.1 nM | 6480 nM | [2H]C([2H])([2H])N(CCC(=O)N1C[C@H](C)N(c2ccc3[nH]c(-c4cn5ncnc5c(C)c4C)c(C(C)C)c3n2)C[C@H]1C)C([2H])([2H])[2H] [Example 965]
15 | 1.3 nM | 2.4 nM | 6020 nM |  |  | Cc1c(-c2[nH]c3ccc(N4CCN(C(=O)CN(C)CC5CC5)CC4)nc3c2C(C)C)cn2ncnc2c1C [Example 966]
16 | 1.2 nM | 7.9 nM | 38700 nM |  |  | Cc1c(-c2[nH]c3ccc(N4CCN(C(=O)CN(C)C5COC5)CC4)nc3c2C(C)C)cn2ncnc2c1C [Example 967]
17 | 0.69 nM | 1.9 nM | 16400 nM |  |  | Cc1c(-c2[nH]c3ccc(N4CCN(C(=O)CNC5CC5)CC4)nc3c2C(C)C)cn2ncnc2c1C [Example 968]
18 | 0.12 nM | 1.3 nM | 7180 nM |  |  | Cc1c(-c2[nH]c3ccc(N4CCN(C(=O)CN(C)CCO)CC4)nc3c2C(C)C)cn2ncnc2c1C [Example 969]
19 | 0.85 nM | 3 nM | 9250 nM |  |  | Cc1c(-c2[nH]c3ccc(N4CCN(C(=O)CN5CCC(CO)CC5)CC4)nc3c2C(C)C)cn2ncnc2c1C [Example 971]
20 | 0.96 nM | 2.5 nM | 13400 nM |  |  | Cc1c(-c2[nH]c3ccc(N4C[C@@H](C)N[C@@H](C)C4)nc3c2C(C)C)cn2ncnc2c1C [Example 976]

The remaining lines, values behind:

Row | SMILES | IC50 [1, 4] | IC50 [2] | IC50 [3, 5] | IC50 [1, 6] | IC50 [3, 7]
21 | Cc1c(-c2[nH]c3ccc(N4C[C@@H](C)N(C(=O)CN(CCO)C(C)(C)C)[C@H](C)C4)nc3c2C(C)C)cn2ncnc2c1C [Example 930] | 7.4 nM | 22 nM | 24300 nM |  | 
22 | Cc1c(-c2[nH]c3ccc(N4CCN(C(=O)CN5CC6(COC6)C5)C[C@H]4C)nc3c2C(C)C)cn2ncnc2c1C [Example 931] | 3.9 nM | 2.5 nM | 14900 nM |  | 
23 | CCN(C)CC(=O)N1CCN(c2ccc3[nH]c(-c4cn5ncnc5c(C)c4C)c(C(C)C)c3n2)[C@@H](C)C1 [Example 932] | 10 nM | 0.66 nM | 14300 nM |  | 
24 | Cc1c(-c2[nH]c3ccc(N4CCN(C(=O)CN(C)C(C)C)C[C@H]4C)nc3c2C(C)C)cn2ncnc2c1C [Example 933] | 18 nM | 0.63 nM | 18400 nM |  | 
25 | Cc1c(-c2[nH]c3ccc(N4CCN(C(=O)CN(C)C(C)(C)C)C[C@H]4C)nc3c2C(C)C)cn2ncnc2c1C [Example 934] | 8.6 nM | 0.86 nM | 9750 nM |  | 
26 | Cc1c(-c2[nH]c3ccc(N4C[C@H](C)N(C(=O)CN5CC6(COC6)C5)C[C@H]4C)nc3c2C(C)C)cn2ncnc2c1C [Example 935] | 2.9 nM | 0.48 nM | 5610 nM |  | 
27 | Cc1c(-c2[nH]c3ccc(N4C[C@H](C)N(C(=O)CN5CCCC5)C[C@H]4C)nc3c2C(C)C)cn2ncnc2c1C [Example 936] | 3.5 nM | 0.56 nM | 4640 nM |  | 
28 | CCN(C)CC(=O)N1C[C@@H](C)N(c2ccc3[nH]c(-c4cn5ncnc5c(C)c4C)c(C(C)C)c3n2)C[C@@H]1C [Example 937] | 14 nM | 0.52 nM | 14200 nM |  | 
29 | Cc1c(-c2[nH]c3ccc(N4C[C@H](C)N(C(=O)CN(C)C(C)C)C[C@H]4C)nc3c2C(C)C)cn2ncnc2c1C [Example 938] | 4.9 nM | 2.6 nM | 8560 nM |  | 
30 | Cc1c(-c2[nH]c3ccc(N4C[C@H](C)N(C(=O)CN(C)C(C)(C)C)C[C@H]4C)nc3c2C(C)C)cn2ncnc2c1C [Example 939] | 9.8 nM | 1.5 nM | 11900 nM |  | 
31 | Cc1c(-c2[nH]c3ccc(N4CCN(C(=O)CN5CC6(COC6)C5)[C@H](C)C4)nc3c2C(C)C)cn2ncnc2c1C [Example 940] | 0.66 nM | 1.7 nM | 8340 nM |  | 
32 | Cc1c(-c2[nH]c3ccc(N4CCN(C(=O)CN5CCCC5)[C@H](C)C4)nc3c2C(C)C)cn2ncnc2c1C [Example 941] | 0.66 nM | 0.66 nM | 7200 nM |  | 
33 | CCN(C)CC(=O)N1CCN(c2ccc3[nH]c(-c4cn5ncnc5c(C)c4N)c(C(C)C)c3n2)C[C@H]1C [Example 942] | 3.4 nM | 0.5 nM | 12000 nM |  | 
34 | Cc1c(-c2[nH]c3ccc(N4CCN(C(=O)CN(C)C(C)C)[C@H](C)C4)nc3c2C(C)C)cn2ncnc2c1C [Example 943] | 1.1 nM | 1.1 nM | 10000 nM |  | 
35 | Cc1c(-c2[nH]c3ccc(N4CCN(C(=O)CN(C)C(C)(C)C)[C@H](C)C4)nc3c2C(C)C)cn2ncnc2c1C [Example 944] | 4.9 nM | 3.1 nM | 17100 nM |  | 
36 | Cc1c(-c2[nH]c3ccc(N4CCN(C(=O)CC(C)(C)N5CC6(COC6)C5)CC4)nc3c2C(C)C)cn2ncnc2c1C [Example 945] | 0.94 nM | 4.8 nM | 7850 nM |  | 
37 | Cc1c(-c2[nH]c3ccc(N4CCN(C(=O)CN5CC(C)(O)C5)CC4)nc3c2C(C)C)cn2ncnc2c1C [Example 946] | 1.8 nM | 1.4 nM | 8950 nM |  | 
38 | Cc1c(-c2[nH]c3ccc(N4CCN(C(=O)CN5CCC6(CCOC6)C5)CC4)nc3c2C(C)C)cn2ncnc2c1C (stereo not drawn) [Example 947] | 0.66 nM | 1.9 nM | 8770 nM |  | 
39 | Cc1c(-c2[nH]c3ccc(N4CCN(C(=O)CN5CCC(C)(O)C5)CC4)nc3c2C(C)C)cn2ncnc2c1C (stereo not drawn) [Example 948] | 1.4 nM | 2.8 nM | 12800 nM |  | 
40 | Cc1c(-c2[nH]c3ccc(N4CCN(C(=O)CN(C)CC(C)(C)O)CC4)nc3c2C(C)C)cn2ncnc2c1C [Example 949] | 1.6 nM | 2.6 nM | 31000 nM |  | 
41 | Cc1c(-c2[nH]c3ccc(N4CCN(C(=O)CN5CCOCC5(C)C)CC4)nc3c2C(C)C)cn2ncnc2c1C [Example 950] | 4.9 nM | 7.2 nM | 36100 nM |  | 
42 | Cc1c(-c2[nH]c3ccc(N4CCN(C(=O)CN5CC6(C5)CS(=O)(=O)C6)CC4)nc3c2C(C)C)cn2ncnc2c1C [Example 951] | 1.5 nM | 6.5 nM | > 50000 nM |  | 
43 | CCNCC(=O)N1CCN(c2ccc3[nH]c(-c4cn5ncnc5c(C)c4C)c(C(C)C)c3n2)CC1 [Example 970] | 0.92 nM | 3.1 nM | 10700 nM |  | 
44 | Cc1c(-c2[nH]c3ccc(N4C5CNCC4COC5)nc3c2C(C)C)cn2ncnc2c1C [Example 972] | 3.1 nM | 3.3 nM | 6920 nM |  | 
45 | Cc1c(-c2[nH]c3ccc(N4CC5CCC(C4)N5)nc3c2C(C)C)cn2ncnc2c1C [Example 973] | 1.7 nM | 6.7 nM | 15800 nM |  | 
46 | Cc1c(-c2[nH]c3ccc(N4C[C@H]5CCC[C@H](C4)N5)nc3c2C(C)C)cn2ncnc2c1C [Example 974] | 0.71 nM | 1.1 nM | 3920 nM |  | 
47 | Cc1c(-c2[nH]c3ccc(N4CCNC(C)C4C)nc3c2C(C)C)cn2ncnc2c1C (stereo not drawn) [Example 977] | 2.1 nM | 1.4 nM | 8600 nM |  | 
